# From patent publication US8383139B2 (Bayer CropScience AG, priority 2008, dated 2013)
# Assay: log P by HPLC on reversed-phase columns (C 18), EEC Directive 79/831 Annex V.A8
# Type: physicochemical
# Details: [a] HPLC, acid region pH 2.3, 0.1% aqueous phosphoric acid and acetonitrile
row,log p,Structure (SMILES)
1,2.02^[a],Cc1cc(Oc2nc(Cc3ccc(F)cc3F)ns2)c(C)cc1N=CN1CCCCC1 [Example 55]
2,2.05^[a],Cc1cc(Oc2nc(Cc3ccc(F)cc3)ns2)c(C)cc1N=CN1CCCCC1 [Example 57]
3,2.71^[a],Cc1cc(Oc2nc(Cc3ccc(OC(F)(F)F)cc3)ns2)c(C)cc1N=CN1CCCCC1 [Example 58]
4,2.23^[a],Cc1cc(Oc2nc(Cc3cccc(Br)c3)ns2)c(C)cc1N=CN1CCCCC1 [Example 59]
5,2.43^[a],Cc1cc(Oc2nc(Cc3ccccc3Cl)ns2)c(C)cc1N=CN1CCCCC1 [Example 62]
6,2.39^[a],Cc1cc(Oc2nc(Cc3ccc(F)c(F)c3)ns2)c(C)cc1N=CN1CCCCC1 [Example 63]
7,2.06^[a],Cc1ccccc1Cc1nsc(Oc2cc(C)c(N=CN3CCCCC3)cc2C)n1 [Example 68]
8,1.9^[a],COc1ccc(Cc2nsc(Oc3cc(C)c(N=CN4CCCCC4)cc3C)n2)cc1 [Example 76]
9,2.12^[a],Cc1cc(Oc2nc(Cc3c(F)cccc3Cl)ns2)c(C)cc1N=CN1CCCCC1 [Example 77]
10,2.66^[a],Cc1cc(Oc2nc(Cc3ccc(C(F)(F)F)cc3)ns2)c(C)cc1N=CN1CCCCC1 [Example 79]
11,2.25^[a],Cc1cc(Oc2nc(Cc3cccc(F)c3)ns2)c(C)cc1N=CN1CCCCC1 [Example 81]
12,2.06^[a],Cc1cc(Oc2nc(Cc3ccc(C#N)cc3)ns2)c(C)cc1N=CN1CCCCC1 [Example 82]
13,2.79^[a],Cc1ccc(Br)cc1Cc1nsc(Oc2cc(C)c(N=CN3CCCCC3)cc2C)n1 [Example 83]
14,2.4^[a],Cc1cc(Oc2nc(Cc3cc(F)ccc3F)ns2)c(C)cc1N=CN1CCCCC1 [Example 84]
15,2.6^[a],Cc1cc(Oc2nc(Cc3c(Cl)cccc3Cl)ns2)c(C)cc1N=CN1CCCCC1 [Example 86]
16,2.17^[a],COc1cccc(Cc2nsc(Oc3cc(C)c(N=CN4CCCCC4)cc3C)n2)c1 [Example 87]
17,2.67^[a],Cc1cc(Oc2nc(Cc3ccc(SC(F)(F)F)cc3)ns2)c(C)cc1N=CN1CCCCC1 [Example 88]
18,2.44^[a],Cc1cc(Oc2nc(Cc3ccc(F)c(C(F)(F)F)c3)ns2)c(C)cc1N=CN1CCCCC1 [Example 91]
19,2.43^[a],Cc1cc(Oc2nc(Cc3ccc4ccccc4c3)ns2)c(C)cc1N=CN1CCCCC1 [Example 92]
20,2.38^[a],Cc1cc(Oc2nc(Cc3cccc(Cl)c3Cl)ns2)c(C)cc1N=CN1CCCCC1 [Example 93]
21,2.36^[a],Cc1cc(Oc2nc(Cc3ccccc3Br)ns2)c(C)cc1N=CN1CCCCC1 [Example 98]
22,2.44^[a],Cc1ccc(Cc2nsc(Oc3cc(C)c(N=CN4CCCCC4)cc3C)n2)c([N+](=O)[O-])c1 [Example 103]
23,2.27^[a],Cc1cc(Oc2nc(Cc3ccccc3F)ns2)c(C)cc1N=CN1CCCCC1 [Example 104]
24,2.1^[a],CCN(C)C=Nc1cc(C)c(Oc2nc(Cc3c(F)cc(F)cc3F)ns2)cc1C [Example 105]
25,2.37^[a],Cc1cc(Oc2nc(Cc3ccc4ccccc4c3)ns2)c(C)cc1N=CN1CCCCC1 [Example 107]
26,2.44^[a],Cc1cccc(Cc2nsc(Oc3cc(C)c(N=CN4CCCCC4)cc3C)n2)c1 [Example 114]
27,2.76^[a],Cc1cc(F)c(Br)cc1Cc1nsc(Oc2cc(C)c(N=CN3CCCCC3)cc2C)n1 [Example 115]
28,2.33^[a],Cc1cc(Oc2nc(Cc3c(F)cc(F)cc3F)ns2)c(C)cc1N=CN1CCCCC1 [Example 117]
29,2.49^[a],Cc1ccc(Cc2nsc(Oc3cc(C)c(N=CN4CCCCC4)cc3C)n2)cc1 [Example 122]

# Second part, the compound before the results:
row,Structure (SMILES),log p
1,Cc1cc(Oc2nc(Cc3ccc(Cl)cc3)ns2)c(C)cc1N=CN(C)CC(F)F [Example 53],2.18^[a]
2,CCN(C)C=Nc1cc(C)c(Oc2nc(Cc3ccc(F)c(F)c3)ns2)cc1C [Example 54],1.86^[a]
3,CCN(C)C=Nc1cc(C)c(Oc2nc(Cc3ccc(OC(F)(F)F)cc3)ns2)cc1C [Example 56],2.21^[a]
4,CCN(C)C=Nc1cc(C)c(Oc2nc(Cc3ccc(F)cc3)ns2)cc1C [Example 60],1.74^[a]
5,CCN(C)C=Nc1cc(C)c(Oc2nc(Cc3ccccc3Cl)ns2)cc1C [Example 61],1.97^[a]
6,CCN(C)C=Nc1cc(C)c(Oc2nc(Cc3ccc([N+](=O)[O-])cc3)ns2)cc1C [Example 64],2.11^[a]
7,CCN(C)C=Nc1cc(C)c(Oc2nc(Cc3cccc(Br)c3)ns2)cc1C [Example 65],2.38^[a]
8,CCN(C)C=Nc1cc(C)c(Oc2nc(Cc3cc(F)ccc3F)ns2)cc1C [Example 67],1.66^[a]
9,CCN(C)C=Nc1cc(C)c(Oc2nc(Cc3ccc(C#N)cc3)ns2)cc1C [Example 69],1.63^[a]
10,Cc1cc(Oc2nc(Cc3ccc(-c4ccccc4)cc3)ns2)c(C)cc1N=CN1CCCCC1 [Example 70],2.45^[a]
11,CCN(C)C=Nc1cc(C)c(Oc2nc(Cc3ccc(C(F)(F)F)cc3)ns2)cc1C [Example 71],2.29^[a]
12,CCN(C)C=Nc1cc(C)c(Oc2nc(Cc3ccccc3C)ns2)cc1C [Example 72],1.89^[a]
13,CCN(C)C=Nc1cc(C)c(Oc2nc(Cc3ccc(-c4ccccc4)cc3)ns2)cc1C [Example 73],2.8^[a]
14,CCN(C)C=Nc1cc(C)c(Oc2nc(Cc3c(F)cccc3Cl)ns2)cc1C [Example 74],2.33^[a]
15,CCN(C)C=Nc1cc(C)c(Oc2nc(Cc3ccc(OC)cc3)ns2)cc1C [Example 75],2.98^[a]
16,CCN(C)C=Nc1cc(C)c(Oc2nc(Cc3cccc(F)c3)ns2)cc1C [Example 78],1.87^[a]
17,CCN(C)C=Nc1cc(C)c(Oc2nc(Cc3ccc(Oc4ccccc4)cc3)ns2)cc1C [Example 80],2.72^[a]
18,Cc1cc(Oc2nc(Cc3ccc(Oc4ccccc4)cc3)ns2)c(C)cc1N=CN1CCCCC1 [Example 85],2.85^[a]
19,CCOc1ccc(Cc2nsc(Oc3cc(C)c(N=CN(C)CC)cc3C)n2)cc1 [Example 89],2.06^[a]

row,Structure (SMILES),log p
1,CCOc1ccc(Cc2nsc(Oc3cc(C)c(N=CN4CCCCC4)cc3C)n2)cc1 [Example 90],2.23^[a]
2,CCN(C)C=Nc1cc(C)c(Oc2nc(Cc3ccc(F)c(C(F)(F)F)c3)ns2)cc1C [Example 94],2.24^[a]
3,CCN(C)C=Nc1cc(Cl)c(Oc2nc(Cc3ccc(SC(F)(F)F)cc3)ns2)cc1C [Example 95],2.51^[a]
4,CCN(C)C=Nc1cc(C)c(Oc2nc(Cc3cccc(Cl)c3Cl)ns2)cc1C [Example 96],2.21^[a]
5,CCN(C)C=Nc1cc(C)c(Oc2nc(Cc3ccc4ccccc4c3)ns2)cc1C [Example 97],2.22^[a]
6,CCN(C)C=Nc1cc(C)c(Oc2nc(Cc3ccccc3F)ns2)cc1C [Example 99],2.12^[a]
7,CCN(C)C=Nc1cc(C)c(Oc2nc(Cc3ccccc3Br)ns2)cc1C [Example 100],2.32^[a]
8,CCOCC(NC=Nc1cc(C)c(Oc2nc(Cc3ccc(OC(F)(F)F)cc3)ns2)cc1C)C1CC1 (stereo not shown) [Example 101],2.85^[a]
9,CCN(C)C=Nc1cc(C)c(Oc2nc(Cc3ccc(SC(F)(F)F)cc3)ns2)cc1C [Example 102],2.78^[a]
10,CCN(C)C=Nc1cc(C)c(Oc2nc(Cc3ccccc3[N+](=O)[O-])ns2)cc1C [Example 106],2.07^[a]
11,CCN(C)C=Nc1cc(C(C)C)c(Oc2nc(Cc3ccc(Cl)cc3Cl)ns2)cc1C [Example 108],2.93^[a]
12,CCN(C)C=Nc1cc(C(C)C)c(Oc2nc(Cc3ccc(Cl)cc3)ns2)cc1C [Example 109],2.71^[a]
13,CCN(C)C=Nc1cc(C(C)C)c(Oc2nc(Cc3ccc(F)cc3)ns2)cc1C [Example 110],2.41^[a]
14,CCN(C)C=Nc1cc(C(C)C)c(Oc2nc(Cc3ccc(Br)cc3)ns2)cc1C [Example 111],2.75^[a]
15,CCN(C)C=Nc1cc(C)c(Oc2nc(Cc3ccc4ccccc4c3)ns2)cc1C [Example 112],2.24^[a]
16,CCN(C)C=Nc1cc(C)c(Oc2nc(Cc3cccc(C)c3)ns2)cc1C [Example 113],2.28^[a]
17,CCN(C)C=Nc1cc(C)c(Oc2nc(Cc3cc(Br)c(F)cc3C)ns2)cc1C [Example 116],2.57^[a]
18,Cc1cc(Oc2nc(Cc3ccccc3[N+](=O)[O-])ns2)c(C)cc1N=CN1CCCCC1 [Example 121],2.16^[a]

# Same assay, conditions: [b] LC-MS, acid region pH 2.7, 0.1% aqueous formic acid and acetonitrile
row,Structure (SMILES),log p
1,CCN(C)C=Nc1cc(Cl)c(Oc2nc(Cc3ccc(Cl)cc3Cl)ns2)cc1C [Example 118],2.42^[b]
2,CCN(C)C=Nc1cc(Cl)c(Oc2nc(Cc3ccc(Br)cc3)ns2)cc1C [Example 119],2.26^[b]
3,CCN(C)C=Nc1cc(C)c(Oc2nc(Cc3ccc(C)cc3)ns2)cc1C [Example 120],2.12^[b]
4,Cc1cc(Oc2nc(Cc3ccc(Cl)cc3)ns2)c(C)cc1N=CN(C)C1CC1 [Example 123],2.06^[b]
5,CCOCC(C1CC1)N(C)C=Nc1cc(C)c(Oc2nc(Cc3ccc(Cl)cc3)ns2)cc1C (stereo not shown) [Example 124],2.56^[b]

# Same assay, conditions: pH 2.3, given in synthesis examples; read-out: log P (pH2.3)
row,Structure (SMILES),chromatographic logP
1,O=c1oc(C2(c3ccc(Cl)cc3)CC2)ns1,3.59

# Same assay, conditions: reversed-phase C18 HPLC column, pH 2.3, [a] HPLC, acid region pH 2.3, 0.1% aqueous phosphoric acid and acetonitrile; read-out: log p
row,Structure (SMILES),chromatographic logP
1,"Cc1cc(Oc2nc(C(C)c3ccc(Cl)cc3)ns2)c(Cl)cc1N=CN1CCCCC1 (stereo not shown) [Example 21, 5-chloro-4-({3-[1-(4-chlorophenyl)ethyl]-1,2,4-thiadiazol-5-yl}oxy)-2-methyl-N-(piperidin-1-ylmethylidene)aniline]",2.67

# Same assay, conditions: reversed-phase C18 HPLC column, pH 2.3, pH 2.3, given in synthesis examples; read-out: log P (pH2.3)
row,Structure (SMILES),chromatographic logP
1,"Cc1ccc(S(=O)(=O)c2nc(C3(c4ccc(Cl)cc4)CC3)ns2)cc1 [3-[1-(4-Chlorophenyl)cyclopropyl]-5-[(4-methylphenyl)sulphonyl]-1,2,4-thiadiazole]",4.97
2,"Cc1cc(Oc2nc(C3(c4ccc(Cl)cc4)CC3)ns2)c(C)cc1N [4-({3-[1-(4-Chlorophenyl)cyclopropyl]-1,2,4-thiadiazol-5-yl}oxy)-2,5-dimethylaniline]",4.44
3,"Cc1cc(Oc2nc(Cc3cccc(Cl)c3)ns2)c(C)cc1N [4-{[3-(3-Chlorobenzyl)-1,2,4-thiadiazol-5-yl]oxy}-2,5-dimethylaniline]",3.68
